These are literature values, as cited in patent US20030194372A1, “Radioimaging probes and the use thereof” (priority 2000, published 2003).

The series has as its system atheroma. Particulars: literature reports.

For `CCC(Cc1c(I)cc(I)c(N)c1I)C(=O)O[C@H]1CC[C@@]2(C)C(=CC[C@H]3[C@@H]4CC[C@H]([C@H](C)CCCC(C)C)[C@@]4(C)CC[C@@H]32)C1` (stereo partly shown) [CI, cholesteryl iopanoate], the “Accumulation in atheroma / atherosclerotic lesions” value is reported as “accumulated preferentially in atheroma relative to normal arterial tissue”.
